Ten molecules from ChEMBL document CHEMBL1201862, “PubChem BioAssay data set” (2004) can be followed below.

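Grown in 96-well plates, cells were treated for 48 hours with each compound at five concentrations. Insufficient inhibition: endpoint recorded as highest concentration tested. Here, GI50 denotes the concentration required for 50% inhibition of growth.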 Active and inactive are the calls of the source. No stated cut-off is given here; in the data, active = GI50 up to about 1.1 µM and inactive = higher.

Some test systems named below: SF-295; HCT-116; OVCAR-4; RXF 393; HL-60; IGROV-1; NCI-H23; CCRF-CEM; OVCAR-3; HT-29; SR; MOLT-4; SK-MEL-5; NCI-H226; K562; 786-0; SNB-19; SK-MEL-28; OVCAR-8; CAKI-1.
Assay in all cases: NCI anticancer screen, dose series, 48 h

On to `O=C(N/N=C\c1ccc([N+](=O)[O-])cc1)c1ccccc1Nc1ccccc1C(=O)N/N=C/c1ccc([N+](=O)[O-])cc1`, for which the GI50 in the assay with SF-295 was > 100 µM (inactive); in the assay with HCT-116 it was > 100 µM (inactive); with OVCAR-4 it was > 100 µM (inactive); with RXF 393, > 100 µM (inactive); with HL-60, 89.7 µM (inactive); with IGROV-1, > 100 µM (inactive). For the same molecule, the GI50 with NCI-H23 is > 100 µM (inactive); with CCRF-CEM it was 85.7 µM (inactive); in the assay with OVCAR-3 it was > 100 µM (inactive); in the assay with HT-29 it was > 100 µM (inactive); with SR, 79.3 µM (inactive); in the assay on MOLT-4, 66.2 µM (inactive). The GI50 in the assay with SK-MEL-5, in the assay with NCI-H226, with K562, in the assay with 786-0, in the assay with SNB-19 and with SK-MEL-28 was > 100 µM (inactive) throughout. The GI50 in the assay on OVCAR-8 and with CAKI-1 was > 100 µM (inactive) in each case.

As for `COCOc1c(C(OCOC)c2cnc(Sc3ccccc3)n2C)ccc(OC)c1OC` (stereo not given), the GI50 in the assay on SF-295 was > 100 µM (inactive); with HCT-116 it was > 100 µM (inactive); in the assay with OVCAR-4, > 100 µM (inactive); in the assay with RXF 393, 83.4 µM (inactive); in the assay on HL-60, > 100 µM (inactive); in the assay with IGROV-1, > 100 µM (inactive). Also, the GI50 with NCI-H23 is > 100 µM (inactive); in the assay on CCRF-CEM it was > 100 µM (inactive); in the assay on OVCAR-3, > 100 µM (inactive); with HT-29, > 100 µM (inactive); with SR, 52.5 µM (inactive); in the assay with MOLT-4, 87.1 µM (inactive). The GI50 with SK-MEL-5 is 63.8 µM (inactive); in the assay with NCI-H226, 76.7 µM (inactive); with K562, > 100 µM (inactive); in the assay with 786-0, > 100 µM (inactive); in the assay with SNB-19, > 100 µM (inactive); with SK-MEL-28 it was > 100 µM (inactive). The GI50 in the assay on OVCAR-8 and with CAKI-1 was > 100 µM (inactive) throughout.

Take `CCCCCCCCCCCCOC(=N)N1CCOCC1`: the GI50 with SF-295 was 17 µM (inactive); in the assay with HCT-116, 8.39 µM (inactive); in the assay with OVCAR-4, 7.62 µM (inactive); with RXF 393, 8.99 µM (inactive); in the assay on HL-60, 1.55 µM (inactive); in the assay on IGROV-1, 12.6 µM (inactive). The GI50 in the assay on NCI-H23 is 13.4 µM (inactive); with CCRF-CEM, 2.26 µM (inactive); in the assay on OVCAR-3 it was 14.9 µM (inactive); in the assay on HT-29, 1.82 µM (inactive); in the assay on SR, 1.56 µM (inactive); in the assay with MOLT-4, 2 µM (inactive). In addition, the GI50 in the assay with SK-MEL-5 is 11 µM (inactive); in the assay with NCI-H226 it was 20.7 µM (inactive); in the assay with K562, 1.88 µM (inactive); in the assay with 786-0, 14.1 µM (inactive); in the assay on SNB-19, 18.5 µM (inactive); with SK-MEL-28, 12.2 µM (inactive). The GI50 is 16.4 µM (inactive) with OVCAR-8 and 4.13 µM (inactive) with CAKI-1.

For the molecule `CC1C2CC(CC23OCC(CCl)O3)C1(C)C` (stereo not given), the GI50 in the assay with SF-295, in the assay on HCT-116, in the assay with OVCAR-4, in the assay on RXF 393, with HL-60 and in the assay with IGROV-1 was > 100 µM (inactive) each time. Moreover, the GI50 in the assay on NCI-H23, in the assay with CCRF-CEM, in the assay on OVCAR-3, in the assay with HT-29, with SR and in the assay on MOLT-4 was > 100 µM (inactive) throughout. For the same molecule, the GI50 in the assay on SK-MEL-5, with NCI-H226, in the assay on K562, with 786-0, in the assay on SNB-19 and in the assay with SK-MEL-28 was > 100 µM (inactive) each time. The GI50 in the assay on OVCAR-8 and in the assay with CAKI-1 was > 100 µM (inactive) each time.

In the case of `C/C(=N\NC(=N)N)C(CN(CC(C)C)CC(C)C)C(=O)Nc1ccc(C)cc1C` (stereo not given), the GI50 with SF-295 was > 100 µM (inactive); in the assay on HCT-116 it was > 100 µM (inactive); in the assay on OVCAR-4, > 100 µM (inactive); in the assay with RXF 393 it was > 100 µM (inactive); with HL-60 it was 91.8 µM (inactive); in the assay with IGROV-1, > 100 µM (inactive). Moreover, the GI50 with NCI-H23, in the assay on CCRF-CEM, with OVCAR-3, with HT-29, with SR and in the assay on MOLT-4 was > 100 µM (inactive) in each case. Besides, the GI50 with SK-MEL-5, in the assay on NCI-H226, with K562, in the assay on 786-0, in the assay on SNB-19 and in the assay on SK-MEL-28 was > 100 µM (inactive) in each case. Also, the GI50 in the assay on OVCAR-8 and in the assay on CAKI-1 was > 100 µM (inactive) each time.

Consider `CCOC(=O)C(NC(=O)c1ccccc1)(N1CCN(c2cc3c(cc2F)c(=O)c(C(=O)O)cn3CC)CC1)C(F)(F)F` (stereo not given), for which the GI50 is 37.5 µM (inactive) in the assay on SF-295; 33.9 µM (inactive) in the assay with HCT-116; 33.1 µM (inactive) with OVCAR-4; 33.8 µM (inactive) in the assay on RXF 393; 20 µM (inactive) with HL-60; 38.4 µM (inactive) in the assay on IGROV-1. The GI50 with NCI-H23 is 32.4 µM (inactive); with CCRF-CEM it was 21.8 µM (inactive); in the assay with OVCAR-3, 31.3 µM (inactive); with HT-29 it was 29 µM (inactive); with SR, 27.2 µM (inactive); in the assay on MOLT-4 it was 21.5 µM (inactive). Also, the GI50 with SK-MEL-5 is 22.9 µM (inactive); with NCI-H226, 29.2 µM (inactive); in the assay on K562, 31.8 µM (inactive); in the assay with 786-0 it was 39.7 µM (inactive); in the assay with SNB-19, 29.9 µM (inactive); with SK-MEL-28, < 0.01 µM (active). Moreover, the GI50 was 19.2 µM (inactive) in the assay with OVCAR-8 and 21.4 µM (inactive) in the assay on CAKI-1.

For `CCOC(=O)Cc1ccc(Nc2nc3cc(F)c(F)cc3nc2C(=O)OCC)cc1`, the GI50 in the assay on SF-295 is 73.1 µM (inactive); with HCT-116, 71.9 µM (inactive); in the assay on OVCAR-4, 57 µM (inactive); with RXF 393, 33.9 µM (inactive); with HL-60, 39.3 µM (inactive); in the assay on IGROV-1 it was 28.7 µM (inactive). Moreover, the GI50 is 26 µM (inactive) in the assay on NCI-H23; 42.8 µM (inactive) in the assay with CCRF-CEM; 47.2 µM (inactive) in the assay with OVCAR-3; 53.7 µM (inactive) in the assay on HT-29; 26.5 µM (inactive) in the assay with SR; 44 µM (inactive) with MOLT-4. In addition, the GI50 is 34.5 µM (inactive) with SK-MEL-5; 69.3 µM (inactive) in the assay with NCI-H226; 35.7 µM (inactive) in the assay with K562; > 100 µM (inactive) in the assay with 786-0; 48.2 µM (inactive) in the assay on SNB-19; 64 µM (inactive) in the assay with SK-MEL-28. Further, the results for the GI50 with OVCAR-8 and with CAKI-1 were 29.2 µM (inactive) and 19.1 µM (inactive), respectively.

Regarding `O/N=C1\CCc2nonc2\C1=N/Nc1ccccc1`, the GI50 with SF-295, in the assay with HCT-116, in the assay on OVCAR-4, in the assay on RXF 393, with HL-60 and in the assay on IGROV-1 was > 100 µM (inactive) throughout. For the same molecule, the GI50 with NCI-H23, with CCRF-CEM, with OVCAR-3, with HT-29, in the assay with SR and in the assay on MOLT-4 was > 100 µM (inactive) in each case. For the same molecule, the GI50 in the assay on SK-MEL-5 was > 100 µM (inactive); with NCI-H226 it was 35.6 µM (inactive); in the assay on K562 it was > 100 µM (inactive); in the assay on 786-0 it was > 100 µM (inactive); in the assay with SNB-19 it was > 100 µM (inactive); in the assay on SK-MEL-28, > 100 µM (inactive). Also, the GI50 in the assay on OVCAR-8 and in the assay on CAKI-1 was > 100 µM (inactive) throughout.

`O=C1NC(Nc2ccccc2)=N/C1=C\c1c(Cl)cccc1Cl`: the GI50 in the assay with SF-295 was 31.3 µM (inactive); with HCT-116, 27.4 µM (inactive); with OVCAR-4 it was 7.18 µM (inactive); in the assay on RXF 393, 17.8 µM (inactive); in the assay on HL-60 it was 3.32 µM (inactive); in the assay with IGROV-1, 17.8 µM (inactive). The GI50 in the assay with NCI-H23 was 29.6 µM (inactive); with CCRF-CEM, 14.3 µM (inactive); in the assay with OVCAR-3, 63.4 µM (inactive); with HT-29 it was 30.6 µM (inactive); in the assay with SR, 5.09 µM (inactive); in the assay on MOLT-4 it was 20.7 µM (inactive). For the same molecule, the GI50 with SK-MEL-5 is 16.3 µM (inactive); with NCI-H226 it was 16.7 µM (inactive); with K562, 21 µM (inactive); with 786-0 it was 15.1 µM (inactive); with SNB-19, 25 µM (inactive); with SK-MEL-28, 30.5 µM (inactive). Besides, the GI50 with OVCAR-8 is 19.1 µM (inactive); with CAKI-1 it was 48.1 µM (inactive).

Consider `C=CCSSCC=C`, for which the GI50 in the assay with SF-295 is 55.5 µM (inactive); in the assay with HCT-116 it was 13.6 µM (inactive); in the assay on OVCAR-4 it was > 76.6 µM (inactive); in the assay on RXF 393, 32.3 µM (inactive); in the assay on HL-60 it was 3.49 µM (inactive); in the assay with IGROV-1, > 71.6 µM (inactive). For the same molecule, the GI50 is > 58.3 µM (inactive) in the assay with NCI-H23; 1.98 µM (inactive) in the assay with CCRF-CEM; 52 µM (inactive) in the assay on OVCAR-3; 38.4 µM (inactive) in the assay on HT-29; 4.09 µM (inactive) in the assay with SR; 1.8 µM (inactive) with MOLT-4. The GI50 in the assay on SK-MEL-5 is 35.4 µM (inactive); in the assay with NCI-H226, 32.1 µM (inactive); in the assay on K562, 5.5 µM (inactive); in the assay with 786-0, 22.5 µM (inactive); in the assay with SNB-19, > 100 µM (inactive); in the assay with SK-MEL-28 it was > 74.8 µM (inactive). Further, the GI50 in the assay with OVCAR-8 was 27.6 µM (inactive); in the assay on CAKI-1, 44.8 µM (inactive).
